The values that follow come from patent US20260258333A1, “MULTI-ORGAN "BODY ON A CHIP" APPARATUS UTILIZING A COMMON MEDIA” (Wake Forest University Health Sciences, priority 2016, published 2026).

Molecules are shown by their SMILES. Read-outs that look alike come from different tables or passages of the source. Bounds are passed on as bounds.

The subject of data set [1] is cardiac organoids, 2D iPS-derived cardiomyocytes, 2D C2C12.
From the text: (§4) Comparison of ATP activity in response to drug screens of FDA-recalled drugs between 3D liver and cardiac organoids, 2D hepatocyte and cardiomyocyte cultures, and 2D HepG2 and C2C12 cell line cultures. Panels a-d) ATP activity of liver organoids, 2D primary human hepatocytes, and 2D hepG2 cell line cultures in response to panel a) troglitazone, panel b) mibefradil, panel c) bromfenac, and panel d) tielinic acid. Panels e-i) ATP activity of cardiac organoids, 2D iPS-derived cardiomyocytes, and 2D C2C12 cell line cultures in response to panel e) astemizole, panel f) pergoglide, panel g) terodiline, panel h) rofecoxib, and panel i) valdecoxib. Comparisons between groups were normalized to the no drug baseline ATP activity levels. Statistical significance: *p<0.05, 3D organoids versus both 2D cultures; #p<0.05, 2D hepatocytes/cardiomyocytes versus both 3D organoids and 2D cell lines; $ p<0.05, 2D cell line versus both 3D organoids and 2D hepatocytes/cardiomyocytes.
(§5) In comparison to 3D organoid systems, we also screened these drugs using 2D primary hepatocyte and iPS cardiomyocyte cultures, and 2D hepg2 hepatoma cells and C2C12 myoblast cultures. […] In order to allow comparisons between the different cell model form factors, which employed different numbers of cells (liver organoids—1500; cardiac organoids—2500; 2D hepatocytes—20000; 2D cardiomyocytes—12500; HepG2 and C2C12 cultures—20000), ATP levels were normalized to no drug baseline levels.
The conditions of data set [2]: marketed use in patients; cited from earlier work.
The test system of data set [3] is cardiac organoids. The method, then:
FIG. 14. […] Panel a) Beating output under baseline conditions, from which beating rate is determined. Panels b-e) Change in cardiac organoid beat rate resulting from exposure to panel b) isoproterenol, or panel c) quinidine. Panels d-e) Cardiac organoid response to epinephrine and propranolol.
FIG. 19. Assessment of cardiac organoid beating kinetics in response to panel a) astemizole, panel b) pergoglide, and panel c) terodiline.
It should be noted that most drugs that are recalled for causing cardiac toxicity are not actually recalled due to cardiac cell death, but rather for causing changes in cardiac function, such as beating kinetics. While 2D cardiomyocyte cultures can maintain beating activity, consistency and reproducibility can be difficult to maintain. […] These facts make it more difficult to compare beating kinetics between these cell model types.

Data set [4] concerns cardiac organoids, 2D iPS-derived cardiomyocytes, 2D C2C12. Kind of data set: ATP activity, 3D cardiac organoids versus 2D iPS cardiomyocyte and 2D C2C12 cultures.
From the text: as §4, §5
The subject of data set [5] is liver organoids. The data set can be described thus: Liver on a chip: acetaminophen toxicity and N-acetyl-L-cysteine countermeasure. The format is cell-based, human. Conditions: for albumin and urea output into media: APAP 1 or 10 mM, NAC 20 mM with 10 mM APAP. The procedure: FIG. 13. […] Viability as determined by LIVE/DEAD staining on day 14. Organoids were exposed to panel a) a 0 mM APAP control, panel b) 1 mM APAP, panel c) 10 mM APAP, or panel d) 10 mM APAP with 20 mM N-acetyl-L-cysteine. Green—Calcein AM-stained viable cells; Red—Ethidium homodimer-stained dead cells. […] Quantification of panel e) human albumin, panel f) urea, panel g) lactate dehydrogenase, and panel h) alpha-GST. […] Statistical significance: *p<0.05 between control and APAP; # p<0.05 APAP+NAC and APAP.

The subject of another data set is vascular endothelium. As to conditions: confluent monolayers, 100 μM histamine from 20 min, at 45 min; 50-90 RFUs before histamine.
The test system of data set [6] is vascular endothelium (human umbilical vein endothelial cells). As to conditions: 100 μM histamine, constant for 10 minutes; normal media about 0.54 kΩ.
From the text: The goal of our work was to develop a highly functional microfluidic perfusion-driven six-tissue body-on-a-chip system, containing representations of liver, heart, vasculature, lung, testes, and colon (FIG. 1, panels A-B). Importantly, these individual tissue types would be constructed in modular microfluidic hardware devices, or microreactors (FIG. 1, panel B), formed by conventional polydimethyl-siloxane (PDMS) soft lithography and molding, ^11,30,31 allowing simple “plug and play” capabilities for platform initialization. […] Because of the specific individual requirements of each type of tissue model, a toolbox of biofabrication techniques was employed to create each tissue model (FIG. 1, panels C-E). Briefly, using hanging drop methodology, spherical liver organoids were formed with primary human hepatocytes, stellate cells, and Kupffer cells, spherical cardiac organoids and testes organoids were formed using human induced pluripotent stem (iPS) cells. These spherical organoids were then bioprinted (FIG. 7) into the microreactors using a liver ECM-derived bio-ink, a fibrin and gelatin bio-ink, and a hyaluronic acid (HA) and gelatin bio-ink, employing crosslinking of the hydrogel bio-inks to immobilize the organoids as larger hydrogel-organoid constructs within the perfusion system. […]
In data set [7] the test system is liver organoids, 2D primary human hepatocytes, 2D HepG2. The data set can be described thus: ATP activity, 3D liver organoids versus 2D hepatocyte and 2D HepG2 cultures. The format is cell-based. As to conditions: ATP normalized to no drug baseline.
From the text: as §4, §5
Data set [8] has as its system liver organoids. Kind of data set: LIVE/DEAD staining of 3D liver organoids, FDA-recalled drug screen. In kind it is cell-based, human. Conditions: increasing drug concentration (troglitazone 0-3 μM, mibefradil 0-100 μM). The text has this: Unfortunately, many drugs have made it through preclinical studies and clinical trials, after which they existed on the market, for years in some cases, before being recalled by the Food and Drug Administration (FDA) for having toxic effects in humans. […] These include liver toxins troglitazone, mibefradil, bromfenac, and tienilic acid, as well as cardiac toxins, astemizole, pergoglide, terodiline, rofecoxib, and valdecoxib.

Data set [9] relates to cardiac organoids. Conditions: preliminary results, FIG. 22.
Protocol: Following compound exposures, organoids were assessed for viability with LIVE/DEAD staining or ATP activity.
In data set [10] the test system is cardiac organoids downstream of liver construct. The text has this:
(§1) In the human body, organs interact with one another in complex ways. […] The modular nature of the fluidic system was employed to construct such a platform. Real-time visual monitoring of cardiac organoids was achieved using an onboard LED and camera system that was customized to integrate with the cardiac construct microreactor housing (FIG. 6, panel a) ^32. This system allowed real time video capture (FIG. 6, panel b). Using custom written MatLab code with a series of MatLab functions, moving pixels in each frame were determined against time, generating a binary representation of beat propagation (FIG. 6, panel c) and plots visualizing beating rates.
(§2) Effects of epinephrine and propranolol were first tested independently with a cardiac-only system or the tandem system, before being tested jointly in both systems.
(§3) Next, the interplay between both drugs in the cardiac-only and tandem systems was assessed. […] Beating plots for each condition are depicted in FIG. 6, panels f-i.

Data set [11] concerns cardiac organoids.
From the text: as §1, §2, §3
This is another data set of the same source.

Data set [12] relates to liver, cardiac, lung, testis, and brain organoids.
Protocol: Aim of Experiment: To assess dependence of multi organoid toxicity on liver organoid metabolic function.
At this point, the liver modules were removed from half of the platforms. Capecitabine (20 μM) was administered to all platforms after which viability was assessed through live/dead staining or cardiac beating behavior after 7 days of exposure (day 14 of total study).
For data set [13] the test system is unchanged. The source holds these as a separate data set.
Protocol: A microfluidic platform having a miniaturized footprint and fluid volume was prepared and it was assessed whether the same complex drug studies are possible on this platform.
As with the full-scale platform described in Example 4, five tissue constructs were initiated containing liver, cardiac, lung, testis, and brain organoids and maintained for 7 days prior to the start of the drug study. At this point, the liver modules were removed from half of the platforms. Capecitabine (20 uM) was administered to all platforms after which viability was assessed through live/dead staining or cardiac beating behavior after 7 days of exposure (day 14 of total study).

As for `Cc1onc(-c2ccccc2)c1-c1ccc(S(N)(=O)=O)cc1` [Valdecoxib], the “sensitivity by ATP activity, 2D cardiomyocyte cultures compared to 3D organoids and 2D C2C12 cultures” value in data set [1] is reported as “increased sensitivity”. In addition, the “Site of Primary Toxicity” value in data set [2] is listed as “Heart”.
Regarding `CC(CC(c1ccccc1)c1ccccc1)NC(C)(C)C` (centres unmarked) [Terodiline], in the data set on cardiac organoids [3], the “beating kinetics of 3D cardiac organoids” value is reported as “detrimental changes in beating kinetics”. The “sensitivity by ATP activity, 3D cardiac organoids compared to the 2D systems” value (from here on “sensitivity … compared to the 2D systems”) in data set [4] (only at the highest concentration of 100 μM) was “slightly more sensitive”. In addition, in data set [2], the “Site of Primary Toxicity” value is recorded as “Heart”.
Regarding `CC(=O)N[C@@H](CS)C(=O)O` [NAC, N-acetyl-L-cysteine], the “viability, LIVE/DEAD staining on day 14” value with liver organoids [5] (10 mM APAP with 20 mM N-acetyl-L-cysteine) is “rescued”. Moreover, the “albumin and urea output into media” value with liver organoids [5] is “decreases this reduction in secretion”.
Take `NCCc1c[nH]cn1` [histamine]: the “fluorescent intensity of outlet aliquots (dye transfer)” value in the data set on vascular endothelium is around 200 RFUs. In addition, the “resistance across endothelium layers (TEER)” value in data set [6] is reported as “approximately 0.4 kΩ”.
For `CCCN1C[C@H](CSC)C[C@@H]2c3cccc4[nH]cc(c34)C[C@H]21` [Pergoglide], the “sensitivity … compared to the 2D systems” value in data set [1] was “significantly more sensitive”. The “beating kinetics of 3D cardiac organoids” value in the data set with cardiac organoids [3] is “detrimental changes in beating kinetics”. Further, the “Site of Primary Toxicity” value in [2] is given as “Heart”.
On to `Nc1c(CC(=O)O)cccc1C(=O)c1ccc(Br)cc1` [Bromfenac], for which the “sensitivity by ATP activity, 3D organoids and 2D hepatocyte cultures in comparison to 2D HepG2 cultures” value in data set [7] is “slightly more resistant”. Also, in data set [2], the “Site of Primary Toxicity” value was “Liver”.
Regarding `COCC(=O)O[C@]1(CCN(C)CCCc2nc3ccccc3[nH]2)CCc2cc(F)ccc2[C@@H]1C(C)C` [Mibefradil], in data set [7], the “sensitivity by ATP activity, 3D organoids and 2D hepatocyte cultures in comparison to 2D HepG2 cultures” value is “more sensitive”. In addition, the “cell death, LIVE/DEAD” value in the data set with liver organoids [8] is recorded as “increases in cell death”. Besides, the “Site of Primary Toxicity” value in data set [2] was “Liver”.
As to `O=[N+]([O-])[O-].[Tl+]` [thallium, thallium nitrate], the ATP activity result in the data set with cardiac organoids [9] was “decreases in ATP activity”.
Turning to `O=C(O)CNCP(=O)(O)O` [glyphosate], the ATP activity result with cardiac organoids [9] is recorded as “decreases in ATP activity”.
For the compound `O=C(O)COc1ccc(C(=O)c2cccs2)c(Cl)c1Cl` [Tienilic Acid], in data set [7], the “sensitivity by ATP activity, 3D organoids versus both 2D systems” value is “did not experience significantly different responses”. The “Site of Primary Toxicity” value in [2] is reported as “Liver”.
Turning to `Cc1c(C)c2c(c(C)c1O)CCC(C)(COc1ccc(CC3SC(=O)NC3=O)cc1)O2` (centres unmarked) [Troglitazone], the “cell death, LIVE/DEAD” value in the data set on liver organoids [8] is “increases in cell death”. The “Site of Primary Toxicity” value in [2] is “Liver”.
As for `CNC[C@H](O)c1ccc(O)c(O)c1` [epinephrine], the “increase in BPM after epinephrine” value in data set [10] (Group 2, liver component present, 0.1 μM propranolol then 0.5 μM epinephrine) is recorded as 1.25 fold. The “response relative to control epinephrine-only response” value in data set [10] (Group 2, liver organoids, propranolol then epinephrine) is recorded as “approximately 50%”. For the same compound, the “restoration of the epinephrine-induced increase in beat rate” value in data set [10] (Group 2 conditions with 2D hepatocyte culture (1-2 million cells) in place of 3D liver organoids) was “failed to achieve any restoration”. Also, the “increase in beating rate” value in data set [10] (epinephrine only, 0.5 μM, liver component present, p<0.05) is recorded as around 30%; in the data set on cardiac organoids [11] (epinephrine only, 0.5 μM) it was ~ 40%. Also, the “increase in cardiac BPM after epinephrine” value in the data set with cardiac organoids [11] (experimental controls, no propranolol prior to epinephrine) amounted to 1.5 fold. In the data set on cardiac organoids [3], the “epinephrine concentration at which beat rate increase reaches a plateau” value is at least 5 µM. The “dose dependent increase in beat rate” value in the data set on cardiac organoids [3] (increasing epinephrine concentration) is reported as 1 to 2 fold.
For `CS(=O)(=O)c1ccc(C2=C(c3ccccc3)C(=O)OC2)cc1` [Rofecoxib], the “sensitivity by ATP activity, 2D cardiomyocyte cultures compared to 3D organoids and 2D C2C12 cultures” value in data set [4] (only at low to medium drug concentrations) is given as “increased sensitivity”. Besides, the “Site of Primary Toxicity” value in [2] is given as “Heart”.
As for `CC(C)NCC(O)COc1cccc2ccccc12` (centres unmarked) [propranolol], the “change in beating rate” value in [10] (propranolol only, 0.1 μM, liver construct present) was “no decrease in beating rate”. Further, the “effect of propranolol on response to 0.5 μM epinephrine” value in the data set with cardiac organoids [11] (Group 1, no liver organoids, 0.1 μM propranolol first) is recorded as “successfully blocked the beta-adrenergic effects”. The “decrease in beating rate” value with cardiac organoids [11] (propranolol only, 0.1 μM, p<0.05) is reported as ~ 10%. The “beating rate after administration of 5 μM epinephrine” value with cardiac organoids [3] (initial incubation with propranolol 0 to 20 μM) is “dose dependent decrease in beating rate”.
Regarding `COc1ccc(CCN2CCC(Nc3nc4ccccc4n3Cc3ccc(F)cc3)CC2)cc1` [Astemizole], the “sensitivity … compared to the 2D systems” value in data set [1] is recorded as “significantly more sensitive”. The “beating kinetics of 3D cardiac organoids” value in the data set with cardiac organoids [3] was “detrimental changes in beating kinetics”. Also, the “Site of Primary Toxicity” value in [2] is on record as “Heart”.
In the case of `CC(=O)Nc1ccc(O)cc1` [APAP, acetaminophen], the “albumin and urea output into media” value in the data set on liver organoids [5] is listed as “negatively affected”. Moreover, the “LDH and alpha-GST in media” value in the data set on liver organoids [5] (APAP treatment) was “elevated levels”.
In the case of `[Cl][Pb][Cl]` [lead, lead chloride], the ATP activity entry in the data set with cardiac organoids [9] is listed as “decreases in ATP activity”.
As for `CCCCCOC(=O)Nc1nc(=O)n([C@@H]2O[C@H](C)[C@@H](O)[C@H]2O)cc1F` [capecitabine], the “metabolism of the prodrug” value is given as “this metabolism does not occur” in data set [12]; “metabolized into the toxic drug 5-FU” in [12] (human, 7 days, 20 μM); “this metabolism does not occur” in data set [13]; “metabolized into the toxic drug 5-FU” in [13] (human, 7 days, 20 uM).
